For one data set, the system named is Mus musculus. Briefly: The in vivo inhibitory activity of compound was measured as effectiveness in preventing seizures induced by loud -high frequency sounds in the DBA/2 mouse after 25 mg/kg ip administration. The data set is classed as functional. The following applies: route intraperitoneal.
A further data set addresses Glutamate NMDA receptor. Briefly: Displacement of [3H]MK-801 from rat brain membrane N-methyl-D-aspartate glutamate receptor. In general terms: In a radioligand displacement assay an active substance lowers the binding of a labelled ligand.
Data set [1] addresses Sodium channel protein type 2 subunit alpha (Rattus norvegicus, UniProt P04775). The data set can be described thus: Sodium channel block, determined by % block of [14C]guanidinium flux in CHO line expressing rat type IIA sodium channels derived from rat brain.
The nature of a further data set: physchem. Particulars: octanol/15 mM HEPES/135 mM NaCl, pH 7.4.
The nature of data set [2]: Prevention of seizures induced by loud -high frequency sounds in the DBA/2 mouse after 20 mg/kg ip administration. The data set is classed as functional. Particulars: route intraperitoneal.

Usually inhibition in vivo stands for how much of the control response was suppressed. A higher inhibition in vivo goes with a response far below the control. One may read the IC50 as the midpoint of a concentration-inhibition curve. What is called logD is the decadic logarithm of the distribution of all forms, ionised or not, between an organic phase and buffer at a given pH. Read a low logD as lower lipophilicity.

Sodium channel protein type 2 subunit alpha, sequence (P04775 whole entry): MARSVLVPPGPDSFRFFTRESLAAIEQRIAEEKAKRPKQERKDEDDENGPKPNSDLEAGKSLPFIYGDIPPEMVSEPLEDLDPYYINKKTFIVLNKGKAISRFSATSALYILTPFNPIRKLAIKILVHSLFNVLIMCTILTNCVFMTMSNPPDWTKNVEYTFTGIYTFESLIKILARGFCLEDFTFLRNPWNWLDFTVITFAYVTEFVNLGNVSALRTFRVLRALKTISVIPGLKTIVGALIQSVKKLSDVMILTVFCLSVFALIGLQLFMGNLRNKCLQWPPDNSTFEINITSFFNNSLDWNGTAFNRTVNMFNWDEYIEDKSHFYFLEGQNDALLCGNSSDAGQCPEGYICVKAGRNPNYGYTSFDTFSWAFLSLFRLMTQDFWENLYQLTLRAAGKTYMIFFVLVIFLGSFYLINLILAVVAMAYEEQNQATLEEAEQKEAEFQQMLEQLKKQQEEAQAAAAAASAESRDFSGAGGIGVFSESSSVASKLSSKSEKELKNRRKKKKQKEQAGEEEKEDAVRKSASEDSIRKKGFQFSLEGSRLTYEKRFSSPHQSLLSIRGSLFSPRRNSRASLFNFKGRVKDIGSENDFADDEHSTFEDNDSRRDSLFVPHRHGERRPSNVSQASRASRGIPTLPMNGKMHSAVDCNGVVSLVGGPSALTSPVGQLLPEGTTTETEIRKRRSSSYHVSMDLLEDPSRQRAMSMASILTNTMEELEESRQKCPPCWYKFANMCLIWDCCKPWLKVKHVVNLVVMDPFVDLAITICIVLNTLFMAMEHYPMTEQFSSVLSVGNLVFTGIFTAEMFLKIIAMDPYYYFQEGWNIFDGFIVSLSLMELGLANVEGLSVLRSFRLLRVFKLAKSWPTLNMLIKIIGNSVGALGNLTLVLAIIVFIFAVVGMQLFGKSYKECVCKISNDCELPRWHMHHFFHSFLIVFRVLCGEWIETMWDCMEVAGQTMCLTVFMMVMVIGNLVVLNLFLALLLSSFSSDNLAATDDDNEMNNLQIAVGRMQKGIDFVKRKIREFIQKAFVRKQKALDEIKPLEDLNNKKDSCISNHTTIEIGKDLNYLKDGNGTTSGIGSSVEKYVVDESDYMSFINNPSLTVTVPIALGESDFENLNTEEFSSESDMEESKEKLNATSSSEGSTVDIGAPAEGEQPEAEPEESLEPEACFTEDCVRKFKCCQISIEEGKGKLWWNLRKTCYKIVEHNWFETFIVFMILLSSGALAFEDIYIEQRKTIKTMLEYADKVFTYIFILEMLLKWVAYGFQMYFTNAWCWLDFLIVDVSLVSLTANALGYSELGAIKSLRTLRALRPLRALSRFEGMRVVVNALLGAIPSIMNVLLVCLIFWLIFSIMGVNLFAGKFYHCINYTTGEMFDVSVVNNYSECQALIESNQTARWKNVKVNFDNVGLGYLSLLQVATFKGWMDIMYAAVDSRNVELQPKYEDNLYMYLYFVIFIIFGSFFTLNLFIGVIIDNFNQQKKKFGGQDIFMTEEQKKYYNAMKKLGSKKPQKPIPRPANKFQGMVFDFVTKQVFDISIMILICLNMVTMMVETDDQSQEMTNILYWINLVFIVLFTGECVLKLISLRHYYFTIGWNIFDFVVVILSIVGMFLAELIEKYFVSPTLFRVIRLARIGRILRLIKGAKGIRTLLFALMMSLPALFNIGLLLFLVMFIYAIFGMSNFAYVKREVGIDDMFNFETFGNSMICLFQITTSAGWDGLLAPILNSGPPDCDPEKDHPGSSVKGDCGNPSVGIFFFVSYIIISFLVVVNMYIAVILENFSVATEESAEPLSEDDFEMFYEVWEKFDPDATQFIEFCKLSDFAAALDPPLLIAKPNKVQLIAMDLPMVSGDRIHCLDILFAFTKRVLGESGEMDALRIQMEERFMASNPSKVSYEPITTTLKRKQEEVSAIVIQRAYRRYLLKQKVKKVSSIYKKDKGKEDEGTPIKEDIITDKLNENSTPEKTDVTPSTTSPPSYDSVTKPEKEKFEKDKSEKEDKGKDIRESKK
Description for physchem: Partition coefficient (logD7.4) (octanol/15 mM HEPES/135 mM NaCl at pH 7.4)

Turning to `CCCCc1ccc(N=C(N)Nc2ccc(CCCC)cc2)cc1`, testing at 25 mg/kg in the data set with Mus musculus gave an inhibition in vivo of 82%. The IC50 on Glutamate NMDA receptor came out at 3.32 µM; in data set [1], 0.13 µM. In “physchem”, this compound registered a logD of 4.1.

In data set [2], `CCC(C)c1ccc(NC(=N)Nc2ccc(C(C)CC)cc2)cc1` (stereo not given) gave an inhibition in vivo at 20 mg/kg of 69%. This compound also gave a 50% inhibitory concentration (IC50) at Glutamate NMDA receptor of 10.1 µM. The same compound yielded a logD in the data set “physchem” of 3.94.

In data set [2], `CCCCc1ccc(NC(N)=Nc2ccc(OCc3ccccc3)cc2)cc1` showed an inhibition in vivo at 20 mg/kg of 40%. For the same compound, the IC50 on Glutamate NMDA receptor is 4.01 µM; in data set [1], 0.14 µM.

In data set [2], `NC(=Nc1ccc(Oc2ccccc2)cc1)Nc1ccc(Oc2ccccc2)cc1` registered an inhibition in vivo at 20 mg/kg of 21%. In data set [1], this compound registered an IC50 of 0.43 µM. This compound came in with a logD in the data set “physchem” of 3.55.

Consider `CC(C)(C)c1ccc(NC(=N)Nc2ccc(OCc3ccccc3)cc2)cc1`, for which the inhibition in vivo at 20 mg/kg in data set [2] was 27%. The IC50 at Glutamate NMDA receptor turned out to be 2.19 µM; in data set [1], 0.11 µM. The compound also gave a logD in the data set “physchem” of 3.46.

In data set [2], `NC(=Nc1ccc(CCCCO)cc1)Nc1ccc(CCCCO)cc1` registered an inhibition in vivo at 20 mg/kg of 0%. The compound also came in with an IC50 in data set [1] of 8.19 µM. In the data set “physchem”, this compound displayed a logD of 0.047.

In the case of `COc1ccc(/N=C(\N)Nc2ccc3c4c(cccc24)CC3)c2ccccc12`, in data set [2], the inhibition in vivo at 20 mg/kg was 50%. Also, the IC50 at Glutamate NMDA receptor worked out at 2.49 µM. Further, the log distribution coefficient (logD) in “physchem” was 2.7.

For `CC(C)(C)c1ccc(NC(=N)Nc2ccc(C(C)(C)C)cc2)cc1`, the inhibition in vivo at 20 mg/kg in data set [2] amounted to 60%. Further, the IC50 on Glutamate NMDA receptor is greater than 7.7 µM; in data set [1], 1.54 µM. For the same compound, the logD in the data set “physchem” stood at 3.65.

`CCCCOc1ccc(NC(=N)Nc2ccc(CCCCO)cc2)cc1` returned an inhibition in vivo at 20 mg/kg in data set [2] of 11%. Moreover, the IC50 in data set [1] stood at 1.78 µM. In addition, the pH-dependent lipophilicity (logD) in “physchem” is 1.72.

With `NC(=Nc1ccc(-c2ccccc2)cc1)Nc1ccc(-c2ccccc2)cc1`, the IC50 in data set [1] turned out to be 0.85 µM. In addition, in “physchem”, the logD amounted to 3.13.

In the case of `CCCCOc1ccc(N=C(N)Nc2ccc(OCCCC)cc2)cc1`, 20 mg/kg produced 52% inhibition in vivo in data set [2]. The IC50 on Glutamate NMDA receptor is 3.48 µM; in data set [1], 0.19 µM. In “physchem”, the logD is 3.52.

For `CCCCCCc1ccc(N=C(N)Nc2ccc(CCCCCC)cc2)cc1`, the inhibition in vivo at 20 mg/kg in data set [2] turned out to be 79%. For the same compound, the figures for the IC50 (at Glutamate NMDA receptor; in data set [1]) were 7.79 µM and 0.83 µM, respectively. The compound also gave a logD in the data set “physchem” of 6.07.

Turning to `CCC(C)c1ccc(NC(N)=Nc2ccc3c4c(cccc24)CC3)cc1` (stereo not given), testing at 20 mg/kg in data set [2] gave an inhibition in vivo of 33%. Besides, inhibition in data set [1] was half-maximal at 0.68 µM (IC50). The logD in “physchem” was 3.31.

In the case of `NC(=Nc1ccc(Sc2ccccc2)cc1)Nc1ccc(Sc2ccccc2)cc1`, in data set [1], the IC50 worked out at 0.84 µM. The compound also returned a logD in the data set “physchem” of 4.18.

In data set [2], `CCc1ccc(NC(=N)Nc2ccc(CC)cc2)cc1` displayed an inhibition in vivo at 20 mg/kg of 100%. Besides, the figures for the IC50 (at Glutamate NMDA receptor; in data set [1]) were 7.91 µM and 1.39 µM, respectively. For the same compound, in “physchem”, the logD was 1.7.

In data set [2], `Cc1ccc(N=C(N)Nc2ccc(C)cc2)cc1` came in with an inhibition in vivo at 20 mg/kg of 43%. Besides, the IC50 stood at 10.2 µM at Glutamate NMDA receptor and 9.21 µM in data set [1]. Further, the logD in “physchem” was 0.7.

Compound `CC(C)c1ccc(NC(=N)Nc2ccc(C(C)C)cc2)cc1` registered an inhibition in vivo at 20 mg/kg in data set [2] of 85%. Besides, the figures for the IC50 (at Glutamate NMDA receptor; in data set [1]) were 17.9 µM and 0.46 µM, respectively. In “physchem”, this compound registered a logD of 2.72.

Turning to `Nc1nc2ccc(OC(F)(F)F)cc2s1` [RILUZOLE], the inhibition in vivo at 20 mg/kg in data set [2] was found to be 92%.

Consider `CN1CCN(c2ncc(-c3cc(Cl)cc(Cl)c3Cl)c(N)n2)CC1` [SIPATRIGINE], for which the inhibition in vivo at 20 mg/kg in data set [2] stood at 66%. Also, in the data set “physchem”, the logD is 3.39.
